What all share (assay type): functional
Experiment [1] relates to Acinetobacter baumannii. In words: Antibacterial activity against Acinetobacter baumannii ATCC 19606 after 18 hrs by broth dilution method. The note with it: ATCC 19606 = CIP 70.34 = JCM 6841, 18 h.
The test system of experiment [2] is Escherichia coli. In words: Antibacterial activity against Escherichia coli 700 expressing TolC after 18 hrs by broth dilution method. The note with it: Escherichia coli, 700, 18 h. For orientation: Broth dilution looks for growth in wells or tubes with falling amounts of substance.
Experiment [3] concerns Escherichia coli. In words: Antibacterial activity against TolC deficient Escherichia coli 701 after 18 hrs by broth dilution method. The note with it: Escherichia coli, 701, 18 h.
The subject of experiment [4] is Pseudomonas aeruginosa. In words: Antibacterial activity against Pseudomonas aeruginosa PAO1 ATCC BAA-47 after 18 hrs by broth dilution method. Particulars: PAO1 ATCC BAA-47, 18 h.
Experiment [5] deals with Pseudomonas aeruginosa. In words: Antibacterial activity against Pseudomonas aeruginosa PAO1 harboring oprM deltamexAB after 18 hrs by broth dilution method. The note with it: PAO1, 18 h.
Experiment [6] has as its system Stenotrophomonas maltophilia. In words: Antibacterial activity against Stenotrophomonas maltophilia ATCC 13637 after 18 hrs by broth dilution method. The note with it: ATCC 13637, 18 h.
Experiment [7] has as its system Klebsiella pneumoniae. In words: Antibacterial activity against Klebsiella pneumoniae ATCC 700603 after 18 hrs by broth dilution method. The note with it: ATCC 700603, 18 h.
The subject of experiment [8] is Bacillus subtilis. In words: Antibacterial activity against Bacillus subtilis BD54 after 18 hrs by broth dilution method. Particulars: BD54, 18 h.
Experiment [9] deals with Bacillus anthracis. In words: Antibacterial activity against Bacillus anthracis Sterne after 18 hrs by broth dilution method.
Experiment [10] has as its system Staphylococcus aureus. In words: Antibacterial activity against Staphylococcus aureus ATCC 25923 after 18 hrs by broth dilution method. The note with it: ATCC 25923, 18 h.
The subject of experiment [11] is Staphylococcus aureus. In words: Antibacterial activity against methicillin-resistant Staphylococcus aureus 1094 after 18 hrs by broth dilution method. Particulars: Staphylococcus aureus, 1094, 18 h.
Experiment [12] has as its system Enterococcus faecalis. In words: Antibacterial activity against Enterococcus faecalis ATCC 29212 after 18 hrs by broth dilution method. Particulars: ATCC 29212, 18 h.
Experiment [13] has as its system Enterococcus faecalis. In words: Antibacterial activity against vancomycin-resistant Enterococcus faecalis ATCC 51575 after 18 hrs by broth dilution method. The note with it: ATCC 51575, 18 h.
Experiment [14] has as its system Burkholderia cepacia. In words: Antibacterial activity against Burkholderia cepacia ATCC 39277 after 18 hrs by broth dilution method. Particulars: ATCC 39277, 18 h.
The subject of experiment [15] is Burkholderia cepacia. In words: Antibacterial activity against Burkholderia cepacia ATCC 55792 after 18 hrs by broth dilution method. The note with it: ATCC 55792, 18 h.
Experiment [16] deals with Escherichia coli. In words: Antibacterial activity against Escherichia coli ATCC 29425 after 18 hrs by broth dilution method. Particulars: ATCC 29425, 18 h.
In experiment [17] the test system is Escherichia coli. In words: Antibacterial activity against Escherichia coli ATCC 29425 after 16 to 18 hrs by agar dilution method.
For experiment [18], the system named is Staphylococcus aureus. In words: Antibacterial activity against Staphylococcus aureus ATCC 25923 after 16 to 18 hrs by agar dilution method. In general terms: Agar dilution tests growth on a series of plates holding different concentrations.
Experiment [19] has as its system Enterococcus faecalis. In words: Antibacterial activity against Enterococcus faecalis ATCC 29212 after 16 to 18 hrs by agar dilution method.
Experiment [20] concerns Klebsiella pneumoniae. In words: Antibacterial activity against Klebsiella pneumoniae ATCC 13882 after 18 hrs by broth dilution method. The note with it: ATCC 13882, 18 h.

A value given as a limit tells only on which side of the number the result lay.

The MIC is the least concentration at which growth counts as inhibited. Low values mean a more susceptible organism, high ones a less susceptible organism. In the case of `O=CN1CCN(c2cc3c(cc2F)c(=O)ccn3C2CC2)CC1`, the MIC in experiment [1], in experiment [2], in experiment [3], in experiment [4], in experiment [5] and in [6] was more than 80 µg/mL throughout. Moreover, the MIC in [7], in experiment [8], in [9], in experiment [10], in experiment [11] and in experiment [12] was more than 80 µg/mL throughout. The MIC in [13] was more than 80 µg/mL; in experiment [14] it was more than 80 µg/mL; in [15] it was more than 80 µg/mL; in [16], more than 80 µg/mL; in experiment [17], more than 64 µg/mL; in [18], more than 64 µg/mL. Besides, the values for the MIC in [19] and in [20] were more than 64 µg/mL and more than 80 µg/mL, respectively.
